Source: the supplement of paper PMC10307832

Assays:
Assay in all cases: relative viability (nuclei count vs DMSO), 5 days (fraction); higher = more cells survive
LU99A = tested on: LU99A
Procedure, shortened: (§1)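 Values are medians from duplicate plates. Each reflects relative viability, defined as the nuclei count of treated wells over that of vehicle wells. Lung cancer cell lines in 1536-well plates were pin-tool dosed one day after seeding with one drug alone or with a fixed anchor-drug dose plus five library-drug doses (not always all listed) in √10 steps, then fixed, stained and imaged at 4× after 5 days.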

NCI-H1437 = tested on: NCI-H1437
Procedure, shortened: as §1

NCI-H441 = tested on: NCI-H441
Procedure, shortened: as §1

LK-2 = tested on: LK-2
Procedure, shortened: as §1

ABC-1 = tested on: ABC-1
Procedure, shortened: as §1

EKVX = tested on: EKVX
Procedure, shortened: as §1

COR-L 105 = tested on: COR-L 105
Procedure, shortened: as §1

NCI-H838 = tested on: NCI-H838
Procedure, shortened: as §1

BEN = tested on: BEN
Procedure, shortened: as §1

HARA = tested on: HARA
Procedure, shortened: as §1

NCI-H1666 = tested on: NCI-H1666
Procedure, shortened: as §1

201T = tested on: 201T
Procedure, shortened: as §1

NCI-H1650 = tested on: NCI-H1650
Procedure, shortened: as §1

PC-14 = tested on: PC-14
Procedure, shortened: as §1

CAL-12T = tested on: CAL-12T
Procedure, shortened: as §1

NCI-H2009 = tested on: NCI-H2009
Procedure, shortened: as §1

SW 900 = tested on: SW 900
Procedure, shortened: as §1

NCI-H661 = tested on: NCI-H661
Procedure, shortened: as §1

COR-L23 = tested on: COR-L23
Procedure, shortened: as §1

NCI-H3122 = tested on: NCI-H3122
Procedure, shortened: as §1

NCI-H727 = tested on: NCI-H727
Procedure, shortened: as §1

HCC-366 = tested on: HCC-366
Procedure, shortened: as §1

NCI-H2170 = tested on: NCI-H2170
Procedure, shortened: as §1

For `O=C(O)c1ccc(-c2c[nH]c3ncc(-c4ccccc4)cc23)cc1C1CCCC1` + COc1cc2c(Oc3ccc(NC(=O)C4(C(=O)Nc5ccc(F)cc5)CC4)cc3F)ccnc2cc1OCCCN1CCOCC1 [Foretinib] (partner 0.25 µM), the relative viability (LU99A; first compound 0.04 µM) was 0.803, the relative viability (LU99A; first compound 0.1265 µM) was 0.783 and the relative viability (LU99A; first compound 0.4 µM) was 0.729. It also gave a relative viability (LU99A; first compound 1.265 µM) of 0.677, a relative viability (NCI-H1437; first compound 0.04 µM) of 1.25 and a relative viability (NCI-H1437; first compound 0.1265 µM) of 1.19. For the same compound, the relative viability (NCI-H1437; first compound 0.4 µM) was 1.11, the relative viability (NCI-H1437; first compound 1.265 µM) was 0.923 and the relative viability (NCI-H441; first compound 0.04 µM) was 1.14. The relative viability (NCI-H441; first compound 0.1265 µM) was 0.881, the relative viability (NCI-H441; first compound 0.4 µM) was 0.897 and the relative viability (NCI-H441; first compound 1.265 µM) was 0.563. The relative viability (LK-2; first compound 0.04 µM) was 1.33, the relative viability (LK-2; first compound 0.1265 µM) was 1.14 and the relative viability (LK-2; first compound 0.4 µM) was 1.13. The relative viability (LK-2; first compound 1.265 µM) was 0.969, the relative viability (ABC-1; first compound 0.04 µM) was 1.02 and the relative viability (ABC-1; first compound 0.1265 µM) was 1.24. The relative viability (ABC-1; first compound 0.4 µM) was 1.04, the relative viability (ABC-1; first compound 1.265 µM) was 0.936 and the relative viability (EKVX; first compound 0.04 µM) was 0.826. The relative viability (EKVX; first compound 0.1265 µM) was 0.79, the relative viability (EKVX; first compound 0.4 µM) was 0.868 and the relative viability (EKVX; first compound 1.265 µM) was 0.712. For the same compound, the relative viability (COR-L 105; first compound 0.04 µM) was 1.1, the relative viability (COR-L 105; first compound 0.1265 µM) was 1.43 and the relative viability (COR-L 105; first compound 0.4 µM) was 0.886. For the same compound, the relative viability (COR-L 105; first compound 1.265 µM) was 1.22, the relative viability (NCI-H838; first compound 0.04 µM) was 1.02 and the relative viability (NCI-H838; first compound 0.1265 µM) was 1.17. The relative viability (NCI-H838; first compound 0.4 µM) was 1.05, the relative viability (NCI-H838; first compound 1.265 µM) was 0.923 and the relative viability (BEN; first compound 0.04 µM) was 0.586. For the same compound, the relative viability (BEN; first compound 0.1265 µM) was 0.854, the relative viability (BEN; first compound 0.4 µM) was 0.937 and the relative viability (BEN; first compound 1.265 µM) was 0.765. The relative viability (HARA; first compound 0.04 µM) was 0.836, the relative viability (HARA; first compound 0.1265 µM) was 0.952 and the relative viability (HARA; first compound 0.4 µM) was 0.811. The relative viability (HARA; first compound 1.265 µM) was 0.796, the relative viability (NCI-H1666; first compound 0.04 µM) was 0.961 and the relative viability (NCI-H1666; first compound 0.1265 µM) was 0.959. For the same compound, the relative viability (NCI-H1666; first compound 0.4 µM) was 0.921, the relative viability (NCI-H1666; first compound 1.265 µM) was 0.441 and the relative viability (201T; first compound 0.04 µM) was 1.29. For the same compound, the relative viability (201T; first compound 0.1265 µM) was 1.25, the relative viability (201T; first compound 0.4 µM) was 1.11 and the relative viability (201T; first compound 1.265 µM) was 0.958. For the same compound, the relative viability (NCI-H1650; first compound 0.04 µM) was 1.22, the relative viability (NCI-H1650; first compound 0.1265 µM) was 1.57 and the relative viability (NCI-H1650; first compound 0.4 µM) was 1.6. It also gave a relative viability (NCI-H1650; first compound 1.265 µM) of 1.14, a relative viability (PC-14; first compound 0.04 µM) of 0.943 and a relative viability (PC-14; first compound 0.1265 µM) of 0.958. For the same compound, the relative viability (PC-14; first compound 0.4 µM) was 1.01, the relative viability (PC-14; first compound 1.265 µM) was 0.941 and the relative viability (CAL-12T; first compound 0.04 µM) was 1.22. For the same compound, the relative viability (CAL-12T; first compound 0.1265 µM) was 1.07, the relative viability (CAL-12T; first compound 0.4 µM) was 1.13 and the relative viability (CAL-12T; first compound 1.265 µM) was 0.997. The relative viability (NCI-H2009; first compound 0.04 µM) was 1.22, the relative viability (NCI-H2009; first compound 0.1265 µM) was 1.22 and the relative viability (NCI-H2009; first compound 0.4 µM) was 1.22. It also gave a relative viability (NCI-H2009; first compound 1.265 µM) of 0.968, a relative viability (SW 900; first compound 0.04 µM) of 0.921 and a relative viability (SW 900; first compound 0.1265 µM) of 0.839. For the same compound, the relative viability (SW 900; first compound 0.4 µM) was 0.896, the relative viability (SW 900; first compound 1.265 µM) was 0.824 and the relative viability (NCI-H661; first compound 0.04 µM) was 1. For the same compound, the relative viability (NCI-H661; first compound 0.4 µM) was 0.971, the relative viability (NCI-H661; first compound 1.265 µM) was 0.977 and the relative viability (COR-L23; first compound 0.04 µM) was 1.02. For the same compound, the relative viability (COR-L23; first compound 0.1265 µM) was 1.19, the relative viability (COR-L23; first compound 0.4 µM) was 0.943 and the relative viability (COR-L23; first compound 1.265 µM) was 0.636. For the same compound, the relative viability (NCI-H3122; first compound 0.04 µM) was 0.968, the relative viability (NCI-H3122; first compound 0.1265 µM) was 0.913 and the relative viability (NCI-H3122; first compound 0.4 µM) was 0.891. The relative viability (NCI-H3122; first compound 1.265 µM) was 0.87, the relative viability (NCI-H727; first compound 0.04 µM) was 1.2 and the relative viability (NCI-H727; first compound 0.1265 µM) was 0.823. For the same compound, the relative viability (NCI-H727; first compound 0.4 µM) was 0.754, the relative viability (NCI-H727; first compound 1.265 µM) was 0.944 and the relative viability (HCC-366; first compound 0.04 µM) was 0.948. It also gave a relative viability (HCC-366; first compound 0.1265 µM) of 0.951, a relative viability (HCC-366; first compound 0.4 µM) of 0.894 and a relative viability (HCC-366; first compound 1.265 µM) of 0.881. For the same compound, the relative viability (NCI-H2170; first compound 0.04 µM) was 0.994, the relative viability (NCI-H2170; first compound 0.1265 µM) was 1 and the relative viability (NCI-H2170; first compound 0.4 µM) was 0.968. The relative viability (NCI-H2170; first compound 1.265 µM) was 0.777.
